Measurements from patent US11572341B2, “Biguanide compound and use thereof” (ImmunoMet Therapeutics Inc., priority 2014, dated 2023).
Counter-ions that a name gives are not always drawn.

Key:
[1] = system: AMPKa [pT172]; experiment: AMPKa activation [pT172] in MCF7 cell; type: cell-based
[2] = system: HCT116 cells; experiment: Inhibitory effect against cancer cell proliferation (MTT); type: cell-based, human; conditions: Homo sapiens, HCT-116; HCT116, MTT, 48 hours; read-out: IC50 (uM) @ HCT116
Method: The formazane crystals thus formed were dissolved using dimethyl sulfoxide (DMSO) and absorbance of the solution was measured at 560 nm. After culturing for 48 hours, […] synthesized in Examples was indicated as cell viability (%) according to each treated concentration.

Row | Compound | AMPKa activation [pT172] (Unit/ml) @ MCF7 cell ([1]; 50 uM) | IC50 [2] | AMPKa activation [pT172] (Unit/ml) @ MCF7 cell ([1]; 5 uM) | AMPKa activation [pT172] (Unit/ml) @ MCF7 cell ([1]; 10 uM)
1 | CN(C)C(=N)NC(=N)N1CCCCC1.Cl [Example 1, N1,N1-dimethyl-N5-piperidine Biguanide Hydrochloride] | 4.6 Unit/ml |  |  | 
2 | Cl.N=C(NC(=N)N1CCCCC1)N1CCCCC1 [Example 2, N1-piperidin-N5-piperidine Biguanide Hydrochloride] | 4.9 Unit/ml |  |  | 
3 | CN(C)C(=N)NC(=N)N(C)Cc1cccc2ccccc12.Cl [Example 3, N1,N1-dimethyl-N5-methyl-N5-1-(naphthalen-1-yl)methyl Biguanide Hydrochloride] | 6.2 Unit/ml |  |  | 
4 | CN(C)C(=N)NC(=N)NCc1ccc2c(c1)OCO2.Cl [Example 4, N1,N1-dimethyl-N5-(benzo[d][1,3]dioxol-5-yl)methyl Biguanide Hydrochloride] | 3.8 Unit/ml |  |  | 
5 | Cl.N=C(NC(=N)N1CCCC1)N1CCCCC1 [Example 5, N1-piperidin-N5-pyrrolidine Biguanide Hydrochloride] | 5.8 Unit/ml |  |  | 
6 | Cl.N=C(NCc1ccc2c(c1)OCO2)NC(=N)N1CCCCC1 [Example 9, N1-piperidin-N5-(benzo[d][1,3]dioxol-5-yl)methyl Biguanide Hydrochloride] | 16.3 Unit/ml |  |  | 
7 | N=C(NC(=N)Nc1cccc(Br)c1)Nc1cccc(Br)c1 [Example 11, N1-(3-bromo)phenyl-N5-3-bromo)phenyl Biguanide Hydrochloride] |  | 4.8 µM |  | 
8 | Cl.N=C(NCCc1ccc(Cl)cc1)NC(=N)N1CCCCC1 [Example 13] | 7.0 Unit/ml |  |  | 
9 | Cl.N=C(NCCc1ccccc1Cl)NC(=N)N1CCCCC1 [Example 14] | 11.0 Unit/ml |  |  | 
10 | CCOC1CCN(C(=N)NC(=N)Nc2cccc(OC(F)(F)F)c2)CC1.Cl [Example 25, N1-(4-ethoxy)piperidin-N5-3-trifluoromethoxy)phenyl Biguanide Hydrochloride] |  | 8.4 µM |  | 
11 | CCOC1CCN(C(=N)NC(=N)Nc2cccc(OC(F)(F)F)c2)CC1.Cl [Example 25] | cell death |  | 5.8 Unit/ml | 7.0 Unit/ml
12 | CN1CCN(C(=N)NC(=N)Nc2ccc(Cl)cc2)CC1.Cl [Example 27, N1-(4-methyl)piperazin-N5-4-chloro)phenyl Biguanide Hydrochloride] |  | > 100 µM |  | 
13 | CN1CCN(C(=N)NC(=N)Nc2ccc(Cl)cc2)CC1.Cl [Example 27] | 14.3 Unit/ml |  | 9.8 Unit/ml | 8.7 Unit/ml
14 | CN1CCN(C(=N)NC(=N)NCc2cccc(Cl)c2)CC1.Cl [Example 35, N1-(4-methyl)piperazin-N5-3-chloro)benzyl Biguanide Hydrochloride] |  | > 100 µM |  | 
15 | CN1CCN(C(=N)NC(=N)NCc2cccc(Cl)c2)CC1.Cl [Example 35] | 3.4 Unit/ml |  | 5.0 Unit/ml | 4.2 Unit/ml
16 | CN1CCN(C(=N)NC(=N)Nc2ccc(F)c(F)c2)CC1.Cl [Example 38, N1-(4-methylpiperazin-N5-(3,4-difluoro)phenyl Biguanide Hydrochloride] |  | > 100 µM |  | 
17 | CN1CCN(C(=N)NC(=N)Nc2ccc(F)c(F)c2)CC1.Cl [Example 38] | 6.4 Unit/ml |  | 5.9 Unit/ml | 5.1 Unit/ml
18 | Cl.N=C(NCc1ccc(OC(F)(F)F)cc1)NC(=N)Nc1cccnc1 [Example 42, Hydrochloride] |  | 23.7 µM |  | 
19 | Cl.N=C(NCc1ccc(OC(F)(F)F)cc1)NC(=N)Nc1cccnc1 [Example 42] | 19.1 Unit/ml |  | 4.3 Unit/ml | 8.7 Unit/ml
20 | CC1CCN(C(=N)NC(=N)Nc2ccc(Cl)cc2)CC1.Cl [Example 55, N1-4-methyl)piperidin-N5-(4-chloro)phenyl Biguanide Hydrochloride] |  | 10.4 µM |  | 
21 | CC1CCN(C(=N)NC(=N)Nc2ccc(Cl)cc2)CC1.Cl [Example 55] | cell death |  | 3.5 Unit/ml | 5.3 Unit/ml

Row | Compound | AMPKa activation [pT172] (Unit/ml) @ MCF7 cell ([1]; 50 uM) | IC50 [2] | AMPKa activation [pT172] (Unit/ml) @ MCF7 cell ([1]; 5 uM) | AMPKa activation [pT172] (Unit/ml) @ MCF7 cell ([1]; 10 uM)
22 | Cl.N=C(NC(=N)N1CCCC1)Nc1ccc(Br)cc1 [Example 72, N1-pyrrolidin-N5-4-bromo)phenyl Biguanide Hydrochloride] |  | 37.7 µM |  | 
23 | Cl.N=C(NC(=N)N1CCCC1)Nc1ccc(Br)cc1 [Example 72] | 19.1 Unit/ml |  | 5.4 Unit/ml | 6.6 Unit/ml
24 | CCCCN/C(=N\C1CCCCCC1)NC(=N)N.Cl [Example 92, N1-butyl-N2-cycloheptyl Biguanide Hydrochloride] | 21.1 Unit/ml |  |  | 
25 | CN(C)/C(=N\Cc1ccc(F)cc1)NC(=N)N1CCCCC1.Cl [Example 93, N1,N1-dimethyl-N2-(4-fluoro)benzyl-N5-piperidine Biguanide Hydrochloride] | 6.6 Unit/ml |  |  | 
26 | C/N=C(\NCc1ccccc1)NC(=N)N(C)C [Example 96, N1-benzyl-N2-methyl-N5,N5-dimethyl Biguanide Hydrochloride] |  | 8.2 µM |  | 
27 | CNC(=N)NC(=N)N.Cl [Example 108, N1-methyl Biguanide Hydrochloride] | 3.9 Unit/ml |  |  | 
28 | Cl.N=C(N)NC(=N)N1CCOCC1 [Example 118] | 6.0 Unit/ml |  |  | 
29 | Cl.N=C(N)NC(=N)Nc1ccc(OC(F)(F)F)cc1 [Example 140] | 8.7 Unit/ml |  | 6.2 Unit/ml | 6.6 Unit/ml
30 | CC1(C)CC(=O)N=C(NC(=N)N2CCCCC2)N1.Cl [Example 151, N-(6,6-dimethyl-4-oxo-1,4,5,6-tetrahydropyrimidin-2-yl)piperidin-1-carboximidamide Hydrochloride] | 11.2 Unit/ml |  | 9.4 Unit/ml | 7.7 Unit/ml
31 | CC1(C)CC(=O)N=C(NC(=N)N)N1.Cl [Example 152] | 8.6 Unit/ml |  | 7.9 Unit/ml | 8.1 Unit/ml
32 | Cl.N=C(NC1=NCCCN1)N1CCCCC1 [Example 153, N-(1,4,5,6-tetrahydropyrimidin-2-yl)piperidin 1-carboximidamide Hydrochloride] | 6.3 Unit/ml |  | 8.0 Unit/ml | 6.8 Unit/ml
33 | Cl.N=C(NC1=NC(=O)CC(C2CC2)N1)N1CCCCC1 (stereo not drawn) [Example 157, N-(6-cyclopropyl-4-oxo-1,4,5,6-tetrahydropyrimidin-2-yl)piperidin-1-carboximidamide Hydrochloride] | 2.00 Unit/ml |  | 4.17 Unit/ml | 2.68 Unit/ml
34 | CC1CN=C(NC(=N)N2CCCCC2)NC1.Cl (stereo not drawn) [Example 158, N-(5-methyl-1,4,5,6-tetrahydropyrimidin-2-yl)piperidin-1-carboximidamide Hydrochloride] | 3.75 Unit/ml |  | 3.11 Unit/ml | 2.49 Unit/ml
35 | CC(C)C1CC(=O)N=C(NC(=N)N2CCCCC2)N1.Cl (stereo not drawn) [Example 159, N-(6-isopropyl-4-oxo-1,4,5,6-tetrahydropyrimidin-2-yl)piperidin-1-carboximidamide Hydrochloride] | 3.02 Unit/ml |  | 2.17 Unit/ml | 2.35 Unit/ml
36 | CC1CNC(NC(=N)N)=NC1=O.Cl (stereo not drawn) [Example 160, 1-(5-methyl-4-oxo-1,4,6-tetrahydropyrimidin-3-yl)guanidine Hydrochloride] | 2.84 Unit/ml |  | 2.51 Unit/ml | 2.65 Unit/ml
37 | CC(C)CC1CC(=O)N=C(NC(=N)N2CCCCC2)N1.Cl (stereo not drawn) [Example 161, N-(6-isobutyl-4-oxo-1,4,5,6-tetrahydropyrimidin-2-yl)piperidin-1-carboximidamide Hydrochloride] | 4.06 Unit/ml |  | 3.03 Unit/ml | 2.73 Unit/ml
38 | CC1CCNC(NC(=N)N2CCCCC2)=N1.Cl (stereo not drawn) [Example 162, N-(4-methyl-1,4,5,6-tetrahydropyrimidin-2-yl)piperidin-1-carboximidamide Hydrochloride] | 7.34 Unit/ml |  | 4.41 Unit/ml | 4.04 Unit/ml
39 | CCCC1CC(=O)N=C(NC(=N)N2CCCCC2)N1.Cl (stereo not drawn) [Example 163, N-(6-propyl-4-oxo-1,4,5,6-tetrahydropyrimidin-2-yl)piperidin-1-carboximidamide Hydrochloride] | 4.48 Unit/ml |  | 4.07 Unit/ml | 3.76 Unit/ml
40 | CC1CC(=O)N=C(NC(=N)N)N1.Cl (stereo not drawn) [Example 164] | 2.77 Unit/ml |  | 2.89 Unit/ml | 3.43 Unit/ml
41 | CCC1CCNC(NC(=N)N2CCCCC2)=N1.Cl (stereo not drawn) [Example 165, N-(4-ethyl-1,4,5,6-tetrahydropyrimidin-2-)piperidin-1-carboximidamide Hydrochloride] | 9.16 Unit/ml |  | 3.80 Unit/ml | 4.36 Unit/ml
